Here are results for 19 molecules from patent US20240101556A1, “COMPOUNDS AND COMPOSITIONS FOR TREATING CONDITIONS ASSOCIATED WITH STING ACTIVITY” (IFM Due, Inc., priority 2021, published 2024).

One may read the EC50 as the concentration needed to bring the measured effect to its halfway point. Low readings indicate a more potent agent, high ones a less potent agent.

In the assay the target is T1, hSTING (Homo sapiens, UniProt Q86WV6, G230A/H232R/R293Q/R71H).
T1 construct: host or cells: THP1-Dual KO-IFNAR2 cells (human monocytic line)
The assay is described as follows: STING reporter assay (luciferase) in THP1-Dual KO-IFNAR2 cells stimulated with 2′3′cGAMP. It is filed as cell-based. The conditions noted are these: 2′3′cGAMP 15 μM with Lipofectamine 2000, 24 h, luciferase reporter activity, compounds 0.0017-100 μM. As for the experimental part:
STING pathway activation by the compounds described herein was measured using THP1-Dual™ cells (KO-IFNAR2).
THP1-Dual™ KO-IFNAR2 Cells (obtained from invivogen) were maintained in RPMI, 10% FCS, 5 ml P/S, 2 mM L-glut, 10 mM Hepes, and 1 mM sodium pyruvate. Compounds were spotted in empty 384 well tissue culture plates (Greiner 781182) by Echo for a final concentration of 0.0017-100 μM. Cells were plated into the TC plates at 40 μL per well, 2×10E6 cells/mL. For activation with STING ligand, 2′3′cGAMP (MW 718.38, obtained from Invivogen), was prepared in Optimem media.
The following solutions were prepared for each 1×384 plate: • Solution A: 2 mL Optimem with one of the following stimuli: • 60 μL of 10 mM 2′3′cGAMP→150 μM stock • Solution B: 2 mL Optimem with 60 μL Lipofectamine 2000→Incubate 5 min at RT
2 mL of solution A and 2 m1 Solution B was mixed and incubated for 20 min at room temperature (RT). 20 μL of transfection solution (A+B) was added on top of the plated cells, with a final 2′3′cGAMP concentration of 15 μM. The plates were then centrifuged immediately at 340 g for 1 minute, after which they were incubated at 37° C., 5% CO2, >98% humidity for 24 h. Luciferase reporter activity was then measured. EC50 values were calculated by using standard methods known in the art.
Luciferase reporter assay: 10 μL of supernatant from the assay was transferred to white 384-plate with flat bottom and squared wells. One pouch of QUANTI-Luc™ Plus was dissolved in 25 mL of water. 100 μL of QLC Stabilizer per 25 mL of QUANTI-Luc™ Plus solution was added. 50 μL of QUANTI-Luc™ Plus/QLC solution per well was then added. Luminescence was measured on a Platereader (e.g., Spectramax I3X (Molecular Devices GF3637001)).
Luciferase reporter activity was then measured. EC50 values were calculated by using standard methods known in the art.
Background: Reporter assays use an easily measured gene product as a stand-in for the process of interest.

T1 sequence (Q86WV6 whole entry R71H/G230A/H232R/R293Q): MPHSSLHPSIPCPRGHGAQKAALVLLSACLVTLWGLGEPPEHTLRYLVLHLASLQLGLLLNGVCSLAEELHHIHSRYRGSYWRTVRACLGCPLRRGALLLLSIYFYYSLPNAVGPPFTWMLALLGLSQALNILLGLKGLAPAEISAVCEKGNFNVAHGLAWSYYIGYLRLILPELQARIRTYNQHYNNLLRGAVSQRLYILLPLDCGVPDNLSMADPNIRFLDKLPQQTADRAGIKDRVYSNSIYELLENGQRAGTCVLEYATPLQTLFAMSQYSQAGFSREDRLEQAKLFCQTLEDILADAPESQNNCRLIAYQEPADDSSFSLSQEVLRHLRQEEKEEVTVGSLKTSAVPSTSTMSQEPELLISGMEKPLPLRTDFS

As to `CC(C)OC1CCC(N2CCN(c3ccc4[nH]cc(NC(=O)Nc5ccc(C(F)(F)F)cc5)c4n3)CC2)CC1` (stereo not shown) [Compound 113, 3-(5-{4-[4-(propan-2-yloxy)cyclohexyl]piperazin-1-yl}-1H-pyrrolo[3,2-b]pyridin-3-yl)-1-[4-(trifluoromethyl)phenyl]urea], the EC50 lay in the range of 5 to 100 µM.
Turning to `O=C(Nc1ccc(C(F)(F)F)cc1)Nc1c[nH]c2ccc(N3CCN(Cc4ccccn4)CC3)nc12` [Compound 120, 3-(5-{4-[(pyridin-2-yl)methyl]piperazin-1-yl}-1H-pyrrolo[3,2-b]pyridin-3-yl)-1-[4-(trifluoromethyl)phenyl]urea], the EC50 was 5 to 100 µM.
Consider `O=C(Nc1ccc(C(F)(F)F)cc1)Nc1c[nH]c2ccc(N3CCN(Cc4ccccc4)CC3)nc12` [Compound 121, 3-[5-(4-benzylpiperazin-1-yl)-1H-pyrrolo[3,2-b]pyridin-3-yl]-1-[4-(trifluoromethyl)phenyl]urea], for which the EC50 is 5 to 100 µM.
`CC(C)c1cnn(-c2ccc3[nH]cc(NC(=O)Nc4ccc(C(F)(F)F)cc4)c3n2)c1` [Compound 131, 1-(5-(4-isopropyl-1H-pyrazol-1-yl)-1H-pyrrolo[3,2-b]pyridin-3-yl)-3-(4-(trifluoromethyl)phenyl)urea] registered an EC50 of 5 to 100 µM.
As to `O=C(Nc1ccc(C(F)(F)F)cc1)Nc1c[nH]c2ccc(N3CCN(C4CCC(F)(F)CC4)CC3)nc12` [Compound 116, 3-{5-[4-(4,4-difluorocyclohexyl)piperazin-1-yl]-1H-pyrrolo[3,2-b]pyridin-3-yl}-1-[4-(trifluoromethyl)phenyl]urea], the EC50 lay within 5 to 100 µM.
Molecule `COCCN1CCN(c2ccc3[nH]cc(NC(=O)Nc4ccc(C(F)(F)F)cc4)c3n2)CC1` [Compound 122, 3-{5-[4-(2-methoxyethyl)piperazin-1-yl]-1H-pyrrolo[3,2-b]pyridin-3-yl}-1-[4-(trifluoromethyl)phenyl]urea] registered an EC50 of 5 to 100 µM.
To `CN1CCN(c2ccc3[nH]cc(NC(=O)Nc4ccc(C(F)(F)F)cc4)c3n2)CC1` [Compound 125, 1-(5-(4-methylpiperazin-1-yl)-1H-pyrrolo[3,2-b]pyridin-3-yl)-3-(4-(trifluoromethyl)phenyl)urea] belongs 5 to 100 µM; to `CC(C)c1ccn(-c2ccc3[nH]cc(NC(=O)Nc4ccc(C(F)(F)F)cc4)c3n2)n1` [Compound 132, 1-(5-(3-isopropyl-1H-pyrazol-1-yl)-1H-pyrrolo[3,2-b]pyridin-3-yl)-3-(4-(trifluoromethyl)phenyl)urea], 5 to 100 µM; to `O=C(Nc1ccc(C(F)(F)F)cc1)Nc1c[nH]c2ccc(N3CCN(CC(F)(F)F)CC3)nc12` [Compound 118, 1-(5-(4-(2,2,2-trifluoroethyl)piperazin-1-yl)-1H-pyrrolo[3,2-b]pyridin-3-yl)-3-(4-(trifluoromethyl)phenyl)urea], 5 to 100 µM.
`O=C(Nc1ccc(C(F)(F)F)cc1)Nc1c[nH]c2ccc(N3CCN(Cc4cccnc4)CC3)nc12` [Compound 119, 3-(5-{4-[(pyridin-3-yl)methyl]piperazin-1-yl}-1H-pyrrolo[3,2-b]pyridin-3-yl)-1-[4-(trifluoromethyl)phenyl]urea] came in with an EC50 of 1 to 5 µM.
For the molecule `CC(C)CN1CCN(c2ccc3[nH]cc(NC(=O)Nc4ccc(C(F)(F)F)cc4)c3n2)CC1` [Compound 124, 3-{5-[4-(2-methylpropyl)piperazin-1-yl]-1H-pyrrolo[3,2-b]pyridin-3-yl}-1-[4-(trifluoromethyl)phenyl]urea], the EC50 lay within 5 to 100 µM.
To `CC(CC(F)(F)F)N1CCN(c2ccc3[nH]cc(NC(=O)Nc4ccc(C(F)(F)F)cc4)c3n2)CC1` (stereo not shown) [Compound 114, 3-{5-[4-(4,4,4-trifluorobutan-2-yl)piperazin-1-yl]-1H-pyrrolo[3,2-b]pyridin-3-yl}-1-[4-(trifluoromethyl)phenyl]urea] belongs 5 to 100 µM.
On to `O=C(Nc1ccc(C(F)(F)F)cc1)Nc1c[nH]c2ccc(N3CCN(C4CCC(C(F)(F)F)CC4)CC3)nc12` (stereo not shown) [Compound 115, 3-(5-{4-[4-(trifluoromethyl)cyclohexyl]piperazin-1-yl}-1H-pyrrolo[3,2-b]pyridin-3-yl)-1-[4-(trifluoromethyl)phenyl]urea], for which the EC50 lay within 5 to 100 µM.
To `O=C(Nc1ccc(C(F)(F)F)cc1)Nc1c[nH]c2ccc(N3CCN(CCC(F)(F)F)CC3)nc12` [Compound 123, 1-[4-(trifluoromethyl)phenyl]-3-{5-[4-(3,3,3-trifluoropropyl)piperazin-1-yl]-1H-pyrrolo[3,2-b]pyridin-3-yl}urea] belongs 5 to 100 µM.
To `O=C(Nc1ccc(C(F)(F)F)cc1)Nc1c[nH]c2ccc(N3CCN(c4ccccc4)CC3)nc12` [Compound 129, 1-(5-(4-phenylpiperazin-1-yl)-1H-pyrrolo[3,2-b]pyridin-3-yl)-3-(4-(trifluoromethyl)phenyl)urea] belongs 0.2 to 1 µM; to `CCN1CCN(c2ccc3[nH]cc(NC(=O)Nc4ccc(C(F)(F)F)c(Cl)c4)c3n2)CC1` [Compound 126, 1-(3-chloro-4-(trifluoromethyl)phenyl)-3-(5-(4-ethylpiperazin-1-yl)-1H-pyrrolo[3,2-b]pyridin-3-yl)urea], 5 to 100 µM; to `CCN1CCN(c2ccc3[nH]cc(NC(=O)Nc4ccc(C(F)(F)F)cc4)c3n2)CC1` [Compound 127, 1-(5-(4-ethylpiperazin-1-yl)-1H-pyrrolo[3,2-b]pyridin-3-yl)-3-(4-(trifluoromethyl)phenyl)urea], 5 to 100 µM.
To `CC(C)(C)OC(=O)N1CCN(c2ccc3[nH]cc(NC(=O)Nc4ccc(C(F)(F)F)cc4)c3n2)CC1` [Compound 128, tert-butyl 4-(3-(3-(4-(trifluoromethyl)phenyl)ureido)-1H-pyrrolo[3,2-b]pyridin-5-yl)piperazine-1-carboxylate] belongs 5 to 100 µM.
Molecule `O=C(Nc1ccc(C(F)(F)F)cc1)Nc1c[nH]c2ccc(N3CCN(CC4CC4)CC3)nc12` [Compound 117, 3-{5-[4-(cyclopropylmethyl)piperazin-1-yl]-1H-pyrrolo[3,2-b]pyridin-3-yl}-1-[4-(trifluoromethyl)phenyl]urea] gave an EC50 of 5 to 100 µM.
